Measurements from US6174877A, “Carbapenem compound, their production and use” (Takeda Chemical Industries, Ltd., priority 1996, dated 2001).
Converted amounts (≈) assume the structure as drawn. Like-named read-outs stand apart in the source and are kept apart here.

Legend:
[1] = tested on: E. coli NHIJ JC-2; assay: Minimum inhibitory concentration (MIC) by agar dilution method; format: cell-based; conditions: Escherichia coli
Method: (§1) Minimum Inhibitory Concentration (MIC)
(§2) The minimum inhibitory concentration [MIC (unit: (μg/ml)] of the test compound was determined by an agar dilution method. More specifically, 0.25 ml of an aqueous solution of the test compound diluted stepwise was put into a Petri dish, which was then mixed with 9.75 ml of Muller-Hinton agar containing fildis enrichment [F-MH medium. fildis enrichment (5%)]). On thus-prepared mixed agar plate, a suspension of the test bacteria (about 10^6 CFU/ml) was spread, which was incubated at 37° C. overnight.

[2] = tested on: H. influenzae NN400; assay: as above; format: cell-based; conditions: Haemophilus influenzae
Method: as §1, §2

[3] = NHIJJC2, strain E. coli NHIJ JC-2, medium F-MH, 10^6 CFU/ml, 37° C. overnight, read-out: MIC (μg/ml) 10^6 CFU/ml E. coli NHIJ JC-2
[4] = strain H. influenzae NN400, medium F-MH, 10^6 CFU/ml, 37° C. overnight, read-out: MIC (μg/ml) 10^6 CFU/ml H. influenzae NN400
[5] = NHIJJC2, read-out: MIC (μg/ml) 10^6 CFU/ml E. coli NHIJ JC-2
[6] = NN400, read-out: MIC (μg/ml) 10^6 CFU/ml H. influenzae NN400

Row | Structure (SMILES) | MIC [1, 3] [µg/mL] | MIC [2, 4] [µg/mL] | MIC [1, 5] [µg/mL] | MIC [2, 6] [µg/mL]
1 | CC(Cc1cccnn1)SC1=C(C(=O)O)N2C(=O)[C@H]([C@@H](C)O)[C@H]2[C@H]1C (single isomer, unassigned; diastereomer-2) [Working Example 17] | 0.1 (≈ 0.275 µM) | 0.1 (≈ 0.275 µM) | – | –
2 | C[C@@H](O)[C@H]1C(=O)N2C(C(=O)O)=C(SCCN=CN)C[C@H]12 [Imipenem, reference compound] | 0.1 (≈ 0.334 µM) | 0.78 (≈ 2.61 µM) | – | –
3 | C[C@@H](O)[C@H]1C(=O)N2C(C(=O)O)=C(SCCc3c[nH]nn3)[C@H](C)[C@H]12 [Working Example 2-3, Sodium (4R,5S,6S)-6-[(1R)-1-hydroxyethyl]-4-methyl-7-oxo-3-[2-(1,2,3-triazol-4-yl)ethylthio]-1-azabicyclo[3.2.0]hept-2-ene-carboxylate] | 0.025 | 0.1 | – | –
4 | C[C@@H](O)[C@H]1C(=O)N2C(C(=O)[O-])=C(SCCc3cc[nH]n3)[C@H](C)[C@H]12.[Na+] [Working Example 3-3, Sodium (4R,5S,6S)-6-[(1R)-1-hydroxyethyl]-4-methyl-7-oxo-3-[2-(3-pyrazolyl)ethylthio]-1-azabicyclo[3.2.0]hept-2-ene-2-carboxylate] | – | – | 0.1 | 0.1
5 | C[C@@H](O)[C@H]1C(=O)N2C(C(=O)[O-])=C(SCCc3cn4ccccc4n3)[C@H](C)[C@H]12.[Na+] [Working Example 18-2, Sodium (4R,5S,6S)-6-[(R)-1-hydroxyethyl]-3-[2-(imidazo[1,2-a]pyridin-2-yl)ethylthio]-4-methyl-7-oxo-1-azabicyclo[3.2.0]hept-2-ene-2-carboxylate] | – | – | 0.2 | 0.1
6 | C[C@@H](O)[C@H]1C(=O)N2C(C(=O)O)=C(SCCc3cn4cc(N)ccc4n3)[C@H](C)[C@H]12 [Working Example 29-2, Sodium (4R,5S,6S)-3-[2-(6-aminoimidazo[1,2-a]pyridin-2-yl)ethylthio]-6-[(1R)-1-hydroxyethyl]-4-methyl-7-oxo-1-azabicyclo[3.2.0]hept-2-ene-carboxylate] | 0.2 | 0.05 | – | –
7 | C[C@@H](O)[C@H]1C(=O)N2C(C(=O)[O-])=C(SCCc3cn4cccnc4n3)[C@H](C)[C@H]12.[Na+] [Working Example 32-2, Sodium (4R,5S,6S)-6-[(1R)-1-hydroxyethyl]-3-[2-(imidazo[1,2-a]pyrimidin-2-yl)ethylthio]-4-methyl-7-oxo-1-azabicyclo[3.2.0]hept-2-ene-2-carboxylate] | – | – | 0.2 | 0.05
8 | C[C@@H](O)[C@H]1C(=O)N2C(C(=O)[O-])=C(SCCc3cn4c(NC(N)=O)cccc4n3)[C@H](C)[C@H]12.[Na+] [Working Example 33-2, Sodium (4R,5S,6S)-6-[(1R)-1-hydroxyethyl]-4-methyl-7-oxo-3-[2-(5-ureidoimidazo[1,2-a]pyridin-2-yl)ethylthio]-1-azabicyclo[3.2.0]hept-2-ene-2-carboxylate] | – | – | 0.2 | 0.1
